What was measured:
Target C = experiment: HiBiT protein abundance assay, Target C (K562 HiBiT knock-in cells); assay type: cell-based, human; details: 24 hours
In short: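 K562 knock-in cells (10000/well, IMDM+1% FBS) treated 24 h at 37 °C with 10-point 3-fold dilutions, top final 10 μM, DMSO ≤0.25%. HiBiT lytic luminescence read; response normalized to unmodified K562 and DMSO-treated controls. IC50 interpolated at 50% abundance by four-parameter logistic fit.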

MYB mRNA = experiment: Gene panel canonical junction qPCR assay, MYB CJ mRNA decrease; assay type: cell-based, human; details: Homo sapiens, canonical junction qPCR, read-out: MYB IC50 (decrease in CJ mRNA levels)
In short: (§1)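 A673 or K562 cells were treated with compound, and lysates underwent cDNA synthesis and qPCR with a CY5 5′-nuclease probe or primer spanning the canonical exon junction. ΔCt versus GAPDH, GUSB or PPIA was normalized to DMSO (2^(−ΔΔCt)), converted to percentage response and fitted four-parameter logistic for IC50.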

HiBiT-tagged HTT protein = experiment: HiBiT protein abundance assay, HTT (K562 HiBiT knock-in cells); assay type: cell-based, human; details: 24 hours
In short: (§2)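 K562 cells with endogenous HiBiT knock-in tag, 10-point 3-fold dilutions (top 10 μM final, ≤0.25% DMSO), 24 h at 37 °C. Lytic Nano-Glo HiBiT luminescence, normalized to DMSO and unmodified K562 baselines; IC50 is concentration giving 50% protein abundance from four-parameter fit.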

HiBiT-tagged MYB protein = experiment: HiBiT protein abundance assay, MYB (K562 HiBiT knock-in cells); assay type: cell-based, human; details: 24 hours
In short: as §2

HTT mRNA = experiment: Gene panel canonical junction qPCR assay, HTT CJ mRNA decrease; assay type: cell-based, human; details: Homo sapiens, canonical junction qPCR, read-out: HTT IC50 (decrease in CJ mRNA levels)
In short: as §1

SMN2 mRNA = experiment: Gene panel canonical junction qPCR assay, SMN2 CJ mRNA decrease; assay type: cell-based, human; details: Homo sapiens, canonical junction qPCR, read-out: SMN2 IC50 (decrease in CJ mRNA levels)
In short: as §1

K562 cells = experiment: Cell Titer Glo 2.0 cell viability assay in K562 cells; details: 72 hours

Row | Compound | IC50 (Target C) | IC50 (MYB mRNA) | IC50 (HiBiT-tagged HTT protein) | IC50 (HiBiT-tagged MYB protein) | IC50 (HTT mRNA) | IC50 (SMN2 mRNA) | Viability (K562 cells)
1 | Cc1cn2cc(NC(=O)c3ccc(N4C[C@@H](C)N[C@@H](C)C4)c4cncnc34)cc(F)c2n1 [Compound 302] | 1 to 10 µM | 100 to 1000 nM | 1 to 10 µM | 100 to 1000 nM | 1 to 10 µM | < 100 nM | C (C represents 1000-9999 nM)
2 | Cc1cn2cc(NC(=O)c3ccc(N4C[C@@H](C)N[C@@H](C)C4)c4nccnc34)cc(Cl)c2n1 [Compound 304] | > 10 µM | < 100 nM | > 10 µM | < 100 nM | 1 to 10 µM | < 100 nM | B (B represents 100-1000 nM)
3 | C[C@@H]1CN(c2ccc(C(=O)Nc3cc(F)c4nc(Cl)cn4c3)c3nccnc23)C[C@H](C)N1 [Compound 306] | 1 to 10 µM | 100 to 1000 nM | 1 to 10 µM | 100 to 1000 nM | > 10 µM | < 100 nM | B (B represents 100-1000 nM)
4 | CNc1nc(NC(=O)c2ccc(N3C[C@@H](C)N[C@@H](C)C3)c3nccnc23)cn2cc(C)nc12 [Compound 308] | > 10 µM | 1000 to 10000 nM | > 10 µM | 1000 to 10000 nM | > 10 µM | 100 to 1000 nM | C (C represents 1000-9999 nM)
5 | Cc1c(O)c(NC(=O)c2ccc(N3C[C@@H](C)N[C@@H](C)C3)c3nccnc23)cc2cn(C)nc12 [Compound 310] | > 10 µM | 100 to 1000 nM | > 10 µM | 1000 to 10000 nM | > 10 µM | < 100 nM | C (C represents 1000-9999 nM)
6 | Cc1cn2cc(NC(=O)c3ccc(N4CC[C@@H](N)C4)c4nccnc34)cc(F)c2n1 [Compound 315] | 1 to 10 µM | 100 to 1000 nM | 1 to 10 µM | 100 to 1000 nM | > 10 µM | < 100 nM | B (B represents 100-1000 nM)
7 | Cc1cn2cc(NC(=O)c3ccc(NC4CCNC4)c4nccnc34)cc(F)c2n1 (stereo not drawn) [Compound 316] | > 10 µM | 100 to 1000 nM | 1 to 10 µM | 100 to 1000 nM | > 10 µM | < 100 nM | B (B represents 100-1000 nM)
8 | Cc1cn2cc(NC(=O)c3ccc(N4CCC5(CCN5)C4)c4nccnc34)cc(F)c2n1 (stereo not drawn) [Compound 339] | 1 to 10 µM | 100 to 1000 nM | 1 to 10 µM | 100 to 1000 nM | 1 to 10 µM | < 100 nM | B (B represents 100-1000 nM)
9 | Cc1cn2cc(NC(=O)c3ccc(N4C[C@@H](C)N[C@@H](C)C4)c4cccnc34)cc(F)c2n1 [Compound 340] | > 10 µM | 100 to 1000 nM | 1 to 10 µM | 100 to 1000 nM | 1 to 10 µM | < 100 nM | B (B represents 100-1000 nM)
10 | Cc1cn2cc(NC(=O)c3ccc(N4CCNC5(CC5)C4)c4cccnc34)cc(F)c2n1 [Compound 341] | > 10 µM | 100 to 1000 nM | 1 to 10 µM | 100 to 1000 nM | 1 to 10 µM | < 100 nM | B (B represents 100-1000 nM)
11 | COc1nc2c(F)cc(NC(=O)c3ccc(N4C[C@@H](C)N[C@@H](C)C4)c4nccnc34)cc2o1 [Compound 342] | > 10 µM | > 10000 nM | > 10 µM | > 10000 nM | > 10 µM | 100 to 1000 nM | C (C represents 1000-9999 nM)
12 | C[C@@H]1CN(c2ccc(C(=O)Nc3cc(F)c4cnccc4c3)c3nccnc23)C[C@H](C)N1 [Compound 343] | 1 to 10 µM | 1000 to 10000 nM | 1 to 10 µM | 1000 to 10000 nM | 1 to 10 µM | 100 to 1000 nM | C (C represents 1000-9999 nM)
13 | C[C@@H]1CN(c2ccc(C(=O)Nc3cc(F)c4ncccc4c3)c3nccnc23)C[C@H](C)N1 [Compound 344] | > 10 µM | 1000 to 10000 nM | > 10 µM | 1000 to 10000 nM | > 10 µM | 100 to 1000 nM | C (C represents 1000-9999 nM)
14 | Cc1cn2cc(NC(=O)c3ccc(N4CCNCC4)c4nncnc34)cc(F)c2n1 [Compound 345] | 1 to 10 µM | 100 to 1000 nM | 1 to 10 µM | 100 to 1000 nM | 1 to 10 µM | < 100 nM | B (B represents 100-1000 nM)
15 | Cc1cn2cc(NC(=O)c3ccc(N4C[C@@H](C)N[C@@H](C)C4)c4ncc(OC5CC5)nc34)cc(F)c2n1 [Compound 351] | > 10 µM | 100 to 1000 nM | 1 to 10 µM | 100 to 1000 nM | 1 to 10 µM | < 100 nM | B (B represents 100-1000 nM)
16 | COc1nc(NC(=O)c2ccc(N3C[C@@H](C)N[C@@H](C)C3)c3nccnc23)cc2cn(C)nc12 [Compound 352] | 1 to 10 µM | 100 to 1000 nM | 1 to 10 µM | 100 to 1000 nM | 1 to 10 µM | < 100 nM | B (B represents 100-1000 nM)
17 | Cc1ccc2cc(NC(=O)c3ccc(N4C[C@@H](C)N[C@@H](C)C4)c4nccnc34)cc(F)c2n1 [Compound 353] | > 10 µM | > 10000 nM | > 10 µM | > 10000 nM | > 10 µM | 100 to 1000 nM | C (C represents 1000-9999 nM)
18 | Cc1cn2nc(NC(=O)c3ccc(N4C[C@@H](C)N[C@@H](C)C4)c4nccnc34)cc2c(C)n1 [Compound 354] | 0.1 to 1 µM | 100 to 1000 nM | 0.1 to 1 µM | 100 to 1000 nM | 0.1 to 1 µM | 100 to 1000 nM | B (B represents 100-1000 nM)
19 | Cc1cn2cc(NC(=O)c3ccc(N4CCC(N)(CF)CC4)c4nccnc34)cc(F)c2n1 [Compound 356] | 1 to 10 µM | 1000 to 10000 nM | 1 to 10 µM | 1000 to 10000 nM | 1 to 10 µM | 100 to 1000 nM | C (C represents 1000-9999 nM)
20 | COc1cn2cc(NC(=O)c3ccc(N4C[C@@H](C)N[C@@H](C)C4)c4nccnc34)cc(F)c2n1 [Compound 357] | > 10 µM | > 10000 nM | > 10 µM | 1000 to 10000 nM | > 10 µM | 100 to 1000 nM | C (C represents 1000-9999 nM)
21 | Cc1cn2cc(NC(=O)c3ccc(N4C[C@@H](C)N[C@@H](C)C4)c4ncccc34)cc(F)c2n1 [Compound 358] | > 10 µM | > 10000 nM | > 10 µM | > 10000 nM | > 10 µM | > 10000 nM | D (D represents greater than 10 μM in K562 cells)

From patent US20240409536A1, “COMPOUNDS AND METHODS FOR MODULATING SPLICING” (REMIX THERAPEUTICS INC., priority 2021, published 2024)
